Test results from the NIST ThermoML archive (doi:10.1016/j.fluid.2018.09.026).
“And” between values parts separate entries of the source, which are not always exact repeats. Equal values may be shown once. ± gives the expanded uncertainty stated by the source.

Conditions: Liquid; for viscosity: Vibrating wire viscometry; for mass density: Vibrating tube method

OCCOCCOCCO [triethylene glycol]
viscosity (303 K, 65190 kPa): 48.95 ± 2 mPa·s | viscosity (303 K, 66350 kPa): 49.26 ± 2 mPa·s | mass density (303.15 K, 100 kPa): 1115.2 ± 4.5 kg/m3 and 1115.1 ± 4.5 kg/m3 | mass density (303.15 K, 630 kPa): 1115.4 ± 4.5 kg/m3 | mass density (303.15 K, 1130 kPa): 1115.6 ± 4.5 kg/m3 | mass density (303.15 K, 1620 kPa): 1115.9 ± 4.5 kg/m3 | mass density (303.15 K, 2140 kPa): 1116.1 ± 4.5 kg/m3 | mass density (303.15 K, 3070 kPa): 1116.5 ± 4.5 kg/m3 | mass density (303.15 K, 5080 kPa): 1117.4 ± 4.5 kg/m3 | mass density (303.15 K, 6960 kPa): 1118.3 ± 4.5 kg/m3 | mass density (303.15 K, 9960 kPa): 1119.6 ± 4.5 kg/m3 | mass density (303.15 K, 14840 kPa): 1121.7 ± 4.5 kg/m3 | mass density (303.15 K, 19750 kPa): 1123.8 ± 4.5 kg/m3 | mass density (303.15 K, 24670 kPa): 1125.9 ± 4.5 kg/m3 | mass density (303.15 K, 29570 kPa): 1127.9 ± 4.5 kg/m3 | mass density (303.15 K, 34500 kPa): 1129.9 ± 4.5 kg/m3 | mass density (303.15 K, 39360 kPa): 1131.9 ± 4.6 kg/m3 | mass density (303.15 K, 44300 kPa): 1133.8 ± 4.6 kg/m3 | mass density (303.15 K, 49190 kPa): 1135.7 ± 4.6 kg/m3 | mass density (303.15 K, 54090 kPa): 1137.6 ± 4.6 kg/m3 | mass density (303.15 K, 58850 kPa): 1139.3 ± 4.6 kg/m3 | mass density (303.15 K, 63890 kPa): 1141.2 ± 4.6 kg/m3 | mass density (303.15 K, 68750 kPa): 1142.9 ± 4.6 kg/m3 | mass density (313.15 K, 100 kPa): 1107.4 ± 4.4 kg/m3 | mass density (313.15 K, 670 kPa): 1107.6 ± 4.4 kg/m3 | mass density (313.15 K, 1130 kPa): 1107.9 ± 4.4 kg/m3 | mass density (313.15 K, 1600 kPa): 1108.1 ± 4.4 kg/m3 | mass density (313.15 K, 2080 kPa): 1108.3 ± 4.4 kg/m3 | mass density (313.15 K, 3100 kPa): 1108.8 ± 4.4 kg/m3 | mass density (313.15 K, 5030 kPa): 1109.7 ± 4.5 kg/m3 | mass density (313.15 K, 7010 kPa): 1110.6 ± 4.5 kg/m3 | mass density (313.15 K, 10010 kPa): 1112 ± 4.5 kg/m3 | mass density (313.15 K, 14880 kPa): 1114.2 ± 4.5 kg/m3 | mass density (313.15 K, 19750 kPa): 1116.4 ± 4.5 kg/m3 | mass density (313.15 K, 24680 kPa): 1118.6 ± 4.5 kg/m3 | mass density (313.15 K, 29560 kPa): 1120.6 ± 4.5 kg/m3 | mass density (313.15 K, 34510 kPa): 1122.7 ± 4.5 kg/m3 | mass density (313.15 K, 39330 kPa): 1124.7 ± 4.5 kg/m3 | mass density (313.15 K, 44290 kPa): 1126.7 ± 4.5 kg/m3 | mass density (313.15 K, 49180 kPa): 1128.6 ± 4.5 kg/m3 | mass density (313.15 K, 54160 kPa): 1130.6 ± 4.6 kg/m3 | mass density (313.15 K, 59000 kPa): 1132.4 ± 4.6 kg/m3 | mass density (313.15 K, 63910 kPa): 1134.3 ± 4.6 kg/m3 | mass density (313.15 K, 68840 kPa): 1136 ± 4.6 kg/m3 | viscosity (313.26 K, 170 kPa): 18.68 ± 1.2 mPa·s [middle of 4 runs] | viscosity (313.26 K, 510 kPa): 18.97 ± 0.78 mPa·s and 18.84 ± 0.77 mPa·s and 18.73 ± 0.77 mPa·s | viscosity (313.26 K, 520 kPa): 18.83 ± 0.77 mPa·s | viscosity (313.26 K, 930 kPa): 18.88 ± 1.2 mPa·s [middle of 6 runs] | viscosity (313.26 K, 4460 kPa): 19.45 ± 0.79 mPa·s | viscosity (313.26 K, 4470 kPa): 19.52 ± 0.79 mPa·s [middle of 4 runs] | viscosity (313.26 K, 9660 kPa): 20.02 ± 0.81 mPa·s | viscosity (313.26 K, 9670 kPa): 20.2 ± 0.82 mPa·s and 20.18 ± 0.82 mPa·s | viscosity (313.26 K, 19980 kPa): 22.07 ± 0.9 mPa·s and 21.92 ± 0.89 mPa·s | viscosity (313.26 K, 19990 kPa): 21.69 ± 0.88 mPa·s | viscosity (313.26 K, 29400 kPa): 23.4 ± 1.8 mPa·s and 23.28 ± 1.8 mPa·s | viscosity (313.26 K, 29410 kPa): 23.3 ± 1.8 mPa·s | viscosity (313.26 K, 29530 kPa): 23.21 ± 0.94 mPa·s | viscosity (313.26 K, 29540 kPa): 23.53 ± 0.96 mPa·s | viscosity (313.26 K, 29550 kPa): 23.54 ± 0.96 mPa·s | viscosity (313.26 K, 29570 kPa): 23.18 ± 1.7 mPa·s | viscosity (313.26 K, 49800 kPa): 26.84 ± 1.1 mPa·s | viscosity (313.26 K, 49830 kPa): 27.18 ± 1.1 mPa·s | viscosity (313.26 K, 49920 kPa): 27.22 ± 1.1 mPa·s | viscosity (313.26 K, 49950 kPa): 26.89 ± 1.1 mPa·s | viscosity (313.26 K, 64360 kPa): 29.73 ± 2.2 mPa·s | viscosity (313.26 K, 64840 kPa): 30.3 ± 1.6 mPa·s | viscosity (313.26 K, 65380 kPa): 30.08 ± 1.2 mPa·s | viscosity (313.26 K, 66900 kPa): 30.18 ± 1.3 mPa·s | mass density (323.15 K, 100 kPa): 1099.6 ± 4.4 kg/m3 and 1099.5 ± 4.4 kg/m3 | mass density (323.15 K, 590 kPa): 1099.8 ± 4.4 kg/m3 | mass density (323.15 K, 1140 kPa): 1100 ± 4.4 kg/m3 | mass density (323.15 K, 1600 kPa): 1100.3 ± 4.4 kg/m3 | mass density (323.15 K, 2080 kPa): 1100.5 ± 4.4 kg/m3 | mass density (323.15 K, 3020 kPa): 1101 ± 4.4 kg/m3 | mass density (323.15 K, 5050 kPa): 1101.9 ± 4.4 kg/m3 | mass density (323.15 K, 7000 kPa): 1102.9 ± 4.4 kg/m3 | mass density (323.15 K, 9970 kPa): 1104.3 ± 4.4 kg/m3 | mass density (323.15 K, 14870 kPa): 1106.7 ± 4.4 kg/m3 | mass density (323.15 K, 19780 kPa): 1108.9 ± 4.5 kg/m3 | mass density (323.15 K, 24700 kPa): 1111.2 ± 4.5 kg/m3 | mass density (323.15 K, 29650 kPa): 1113.3 ± 4.5 kg/m3 | mass density (323.15 K, 34470 kPa): 1115.4 ± 4.5 kg/m3 | mass density (323.15 K, 39340 kPa): 1117.5 ± 4.5 kg/m3 | mass density (323.15 K, 44250 kPa): 1119.6 ± 4.5 kg/m3 | mass density (323.15 K, 49170 kPa): 1121.6 ± 4.5 kg/m3 | mass density (323.15 K, 54080 kPa): 1123.5 ± 4.5 kg/m3 | mass density (323.15 K, 58970 kPa): 1125.5 ± 4.5 kg/m3 | mass density (323.15 K, 63800 kPa): 1127.3 ± 4.5 kg/m3 | mass density (323.15 K, 68780 kPa): 1129.2 ± 4.6 kg/m3 | mass density (333.15 K, 100 kPa): 1091.7 ± 4.4 kg/m3 | mass density (333.15 K, 660 kPa): 1092 ± 4.4 kg/m3 | mass density (333.15 K, 1110 kPa): 1092.2 ± 4.4 kg/m3 | mass density (333.15 K, 1600 kPa): 1092.5 ± 4.4 kg/m3
